Assay results: US20240116985A1, “STAPLED PEPTIDES AND METHODS THEREOF” (priority 2020, published 2024)

Key:
[1] = target: T1, full-length beta-Catenin (Uniprot ID P35222) (Homo sapiens, UniProt P35222); experiment: Fluorescence polarization IC50 (beta-catenin / 5FAM-TCF4 10-53 competition); type: binding; conditions: fluorescence polarization; read-out: beta-Catenin FP IC50
T1 construct: 10 nM full-length beta-Catenin (Uniprot ID P35222)
T1 sequence (P35222 1-781): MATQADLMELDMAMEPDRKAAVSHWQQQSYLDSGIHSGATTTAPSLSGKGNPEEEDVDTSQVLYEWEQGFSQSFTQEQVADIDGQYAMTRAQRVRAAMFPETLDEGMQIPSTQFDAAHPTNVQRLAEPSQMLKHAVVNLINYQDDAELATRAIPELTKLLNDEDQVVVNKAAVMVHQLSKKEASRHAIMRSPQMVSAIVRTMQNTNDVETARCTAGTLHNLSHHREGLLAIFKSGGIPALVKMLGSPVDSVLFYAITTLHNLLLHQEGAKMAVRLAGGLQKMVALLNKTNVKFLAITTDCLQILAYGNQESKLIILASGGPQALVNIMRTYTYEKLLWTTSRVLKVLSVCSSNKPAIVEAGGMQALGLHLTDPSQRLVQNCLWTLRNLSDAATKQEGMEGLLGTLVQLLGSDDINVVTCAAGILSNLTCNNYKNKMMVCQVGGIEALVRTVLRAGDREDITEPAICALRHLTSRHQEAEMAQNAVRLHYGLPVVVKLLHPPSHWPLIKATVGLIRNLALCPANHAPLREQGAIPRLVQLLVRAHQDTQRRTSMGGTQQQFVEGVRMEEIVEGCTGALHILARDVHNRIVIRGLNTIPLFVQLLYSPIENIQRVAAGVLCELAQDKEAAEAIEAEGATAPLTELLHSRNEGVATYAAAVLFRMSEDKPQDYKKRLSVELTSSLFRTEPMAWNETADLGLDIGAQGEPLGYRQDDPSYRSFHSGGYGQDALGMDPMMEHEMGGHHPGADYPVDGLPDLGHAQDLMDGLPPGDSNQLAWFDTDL

[2] = target: T2, beta-catenin/TCF4 engagement (Homo sapiens, UniProt P35222); experiment: Nano-BRET target engagement assay (B-cat-Halo & TCF4-Luc in HEK293 cells); type: cell-based; conditions: absolute IC50; read-out: NanoBRET Abs IC50
T2 construct: expressed in transfected cells; host or cells: HEK293
T2 sequence (P35222 1-781): T1 sequence (P35222 1-781)

| IC50 [1] [µM] | IC50 [2] [µM] | Structure (SMILES) |
| --- | --- | --- |
| 0.014 | 2.1 | CCNC(=O)CC[C@H](NC(=O)[C@H](Cc1csc2ccccc12)NC(=O)[C@H](Cc1ccsc1)NC(=O)[C@]12CCN(C1)C(=O)OCCCC=CCCCC1(CCCC=CC[C@]3(CCCN3C(C)=O)C(=O)N[C@@H](CC(=O)O)C(=O)N[C@@H](CC(C)(C)C)C(=O)N1)C(=O)N[C@@H](CC(=O)O)C(=O)N[C@@H](CN(CC(=O)O)CC(F)(F)F)C(=O)N[C@@H](C)C(=O)N[C@@H](C)C(=O)N[C@@H](Cc1ccccc1)C(=O)N[C@@H](CC(C)C)C(=O)N2)C(=O)N[C@@H](C)C(N)=O (stereo partly drawn) [I-2471, Ac-PL3-Asp-Npg-B5-Asp-TfeGA-Ala-Ala-Phe-Leu-PyrS2-3Thi-BztA-[NHEt]GlnR-Ala-NH2] |
| 0.165 | > 20 | CC(=O)N1CCC[C@]12CC=CCCCC1(CCCC=CCCCOC(=O)N3CC[C@@](C(=O)N[C@@H](Cc4ccsc4)C(=O)N[C@@H](Cc4csc5ccccc45)C(=O)N[C@@H](CCCCN)C(N)=O)(C3)NC(=O)[C@H](CC(N)=O)NC(=O)[C@H](Cc3ccccc3)NC(=O)[C@H](C)NC(=O)C(C)(C)NC(=O)[C@H]([C@@H](C)O)NC(=O)[C@H](CC(N)=O)NC1=O)NC(=O)[C@H](CC(C)(C)C)NC(=O)[C@H](CC(=O)O)NC2=O (stereo partly drawn) [I-2477, Ac-PL3-Asp-Npg-B5-Asn-Thr-Aib-Ala-Phe-Asn-PyrS2-3Thi-BztA-Lys-NH2] |
| 0.31 | > 20 | CC(=O)N1CCC[C@]12CC=CCCCC1(CCCC=CCCCOC(=O)N3CC[C@@](C(=O)N[C@@H](Cc4ccsc4)C(=O)N[C@@H](Cc4csc5ccccc45)C(=O)N[C@@H](Cc4ccc(O)cc4)C(N)=O)(C3)NC(=O)[C@H](CC(N)=O)NC(=O)[C@H](Cc3ccccc3)NC(=O)[C@H](C)NC(=O)C(C)(C)NC(=O)[C@H]([C@@H](C)O)NC(=O)[C@H](CC(N)=O)NC1=O)NC(=O)[C@H](CC(C)(C)C)NC(=O)[C@H](CC(=O)O)NC2=O (stereo partly drawn) [I-2478, Ac-PL3-Asp-Npg-B5-Asn-Thr-Aib-Ala-Phe-Asn-PyrS2-3Thi-BztA-Tyr-NH2] |
| 0.034 | 3.7 | CC(=O)N1CCC[C@]12CC=CCCCC1(CCCC=CCCCOC(=O)N3CC[C@@](C(=O)N[C@@H](Cc4ccccc4C(F)(F)F)C(=O)N[C@@H](Cc4csc5c(Cl)cccc45)C(=O)N[C@@H](CCC(N)=O)C(N)=O)(C3)NC(=O)[C@H](CC(C)C)NC(=O)[C@H](Cc3ccccc3)NC(=O)[C@H](C)NC(=O)[C@H](C)NC(=O)[C@H](Cc3cccc(C(=O)O)c3)NC(=O)[C@H](CC(=O)O)NC1=O)NC(=O)[C@H](CC(C)(C)C)NC(=O)[C@H](CC(=O)O)NC2=O (stereo partly drawn) [I-2486, Ac-PL3-Asp-Npg-B5-Asp-3COOHF-Ala-Ala-Phe-Leu-PyrS2-2F3MeF-7C1BztA-Gln-NH2] |
| 0.026 | 3.6 | CC(=O)N1CCC[C@]12CC=CCCCC1(CCCC=CCCCOC(=O)N3CC[C@@](C(=O)N[C@@H](Cc4ccccc4C(F)(F)F)C(=O)N[C@@H](Cc4csc5c(F)cccc45)C(=O)N[C@@H](CCC(N)=O)C(N)=O)(C3)NC(=O)[C@H](CC(C)C)NC(=O)[C@H](Cc3ccccc3)NC(=O)[C@H](C)NC(=O)[C@H](C)NC(=O)[C@H](Cc3cccc(C(=O)O)c3)NC(=O)[C@H](CC(=O)O)NC1=O)NC(=O)[C@H](CC(C)(C)C)NC(=O)[C@H](CC(=O)O)NC2=O (stereo partly drawn) [I-2488, Ac-PL3-Asp-Npg-B5-Asp-3COOHF-Ala-Ala-Phe-Leu-PyrS2-2F3MeF-7FBztA-Gln-NH2] |
| 0.039 | 6.4 | CC(=O)N1CCC[C@]12CC=CCCCC1(CCCC=CCCCOC(=O)N3CC[C@@](C(=O)N[C@@H](Cc4ccccc4C(F)(F)F)C(=O)N[C@@H](Cc4csc5cccc(Cl)c45)C(=O)N[C@@H](CCC(N)=O)C(N)=O)(C3)NC(=O)[C@H](CC(C)C)NC(=O)[C@H](Cc3ccccc3)NC(=O)[C@H](C)NC(=O)[C@H](C)NC(=O)[C@H](Cc3cccc(C(=O)O)c3)NC(=O)[C@H](CC(=O)O)NC1=O)NC(=O)[C@H](CC(C)(C)C)NC(=O)[C@H](CC(=O)O)NC2=O (stereo partly drawn) [I-2490, Ac-PL3-Asp-Npg-B5-Asp-3COOHF-Ala-Ala-Phe-Leu-PyrS2-2F3MeF-4C1BztA-Gln-NH2] |

More lines, now with the values behind:

| Structure (SMILES) | IC50 [1] [µM] | IC50 [2] [µM] |
| --- | --- | --- |
| CC(=O)N1CCC[C@]12CC=CCCCC1(CCCC=CCCCOC(=O)N3CC[C@@](C(=O)N[C@@H](Cc4ccccc4C(F)(F)F)C(=O)N[C@H](C(=O)N[C@@H](CCC(N)=O)C(N)=O)[C@@H](C)c4ccc5ccccc5c4)(C3)NC(=O)[C@H](CC(C)C)NC(=O)[C@H](Cc3ccccc3)NC(=O)[C@H](C)NC(=O)[C@H](C)NC(=O)[C@H](Cc3cccc(C(=O)O)c3)NC(=O)[C@H](CC(=O)O)NC1=O)NC(=O)[C@H](CC(C)(C)C)NC(=O)[C@H](CC(=O)O)NC2=O (stereo partly drawn) [I-2464, Ac-PL3-Asp-Npg-B5-Asp-3COOHF-Ala-Ala-Phe-Leu-PyrS2-2F3MeF-SbMe2NapA-Gln-NH2] | 0.079 | 16.5 |
| CC(=O)N1CCC[C@]12CC=CCCCC1(CCCC=CCCCOC(=O)N3CC[C@@](C(=O)N[C@@H](Cc4ccccc4C(F)(F)F)C(=O)N[C@H](C(=O)N[C@@H](C)C(N)=O)[C@@H](C)c4ccc5ccccc5c4)(C3)NC(=O)[C@H](CC(C)C)NC(=O)[C@H](Cc3ccccc3)NC(=O)[C@H](C)NC(=O)[C@H](CCC(N)=O)NC(=O)[C@H](Cc3cccc(C(=O)O)c3)NC(=O)[C@H](CC(=O)O)NC1=O)NC(=O)[C@H](CC(C)(C)C)NC(=O)[C@H](CC(=O)O)NC2=O (stereo partly drawn) [I-2465, Ac-PL3-Asp-Npg-B5-Asp-3COOHF-Gln-Ala-Phe-Leu-PyrS2-2F3MeF-SbMe2NapA-Ala-NH2] | 0.164 | > 20 |
| CCNC(=O)CC[C@H](NC(=O)[C@H](Cc1csc2ccccc12)NC(=O)[C@H](Cc1ccccc1C(F)(F)F)NC(=O)[C@]12CCN(C1)C(=O)OCCCC=CCCCC1(CCCC=CC[C@]3(CCCN3C(C)=O)C(=O)N[C@@H](CC(=O)O)C(=O)N[C@@H](CC(C)(C)C)C(=O)N1)C(=O)N[C@@H](CC(=O)O)C(=O)N[C@@H](Cc1cccc(C(=O)O)c1)C(=O)N[C@@H](C)C(=O)N[C@@H](C)C(=O)N[C@@H](Cc1ccccc1)C(=O)N[C@@H](CC)C(=O)N2)C(=O)N[C@@H](C)C(N)=O (stereo partly drawn) [I-2472, Ac-PL3-Asp-Npg-B5-Asp-3COOHF-Ala-Ala-Phe-Abu-PyrS2-2F3MeF-BztA-INHEt]GlnR-Ala-NH2] | 0.013 | 1.8 |
| CC(=O)N1CCC[C@]12CC=CCCCC1(CCCC=CCCCOC(=O)N3CC[C@@](C(=O)N[C@@H](Cc4ccccc4C(F)(F)F)C(=O)N[C@@H](Cc4c(C(F)(F)F)[nH]c5ccccc45)C(=O)N[C@@H](CCC(N)=O)C(N)=O)(C3)NC(=O)[C@H](CC(C)C)NC(=O)[C@H](Cc3ccccc3)NC(=O)[C@H](C)NC(=O)[C@H](C)NC(=O)[C@H](Cc3cccc(C(=O)O)c3)NC(=O)[C@H](CC(=O)O)NC1=O)NC(=O)[C@H](CC(C)(C)C)NC(=O)[C@H](CC(=O)O)NC2=O (stereo partly drawn) [I-2484, Ac-PL3-Asp-Npg-B5-Asp-3COOHF-Ala-Ala-Phe-Leu-PyrS2-2F3MeF-2F3MeW-Gln-NH2] | 6.29 | > 20 |
| CC(=O)N1CCC[C@]12CC=CCCCC1(CCCC=CCCCOC(=O)N3CC[C@@](C(=O)N[C@@H](Cc4ccccc4C(F)(F)F)C(=O)N[C@@H](Cc4c(C(F)(F)F)[nH]c5ccccc45)C(=O)N[C@@H](C)C(N)=O)(C3)NC(=O)[C@H](CC(C)C)NC(=O)[C@H](Cc3ccccc3)NC(=O)[C@H](C)NC(=O)[C@H](CCC(N)=O)NC(=O)[C@H](Cc3cccc(C(=O)O)c3)NC(=O)[C@H](CC(=O)O)NC1=O)NC(=O)[C@H](CC(C)(C)C)NC(=O)[C@H](CC(=O)O)NC2=O (stereo partly drawn) [I-2485, Ac-PL3-Asp-Npg-B5-Asp-3COOHF-Gln-Ala-Phe-Leu-PyrS2-2F3MeF-2F3MeW-Ala-NH2] | 4.75 | > 20 |
| CC(=O)N1CCC[C@]12CC=CCCCC1(CCCC=CCCCOC(=O)N3CC[C@@](C(=O)N[C@@H](Cc4ccccc4C(F)(F)F)C(=O)N[C@@H](Cc4csc5c(Cl)cccc45)C(=O)N[C@@H](C)C(N)=O)(C3)NC(=O)[C@H](CC(C)C)NC(=O)[C@H](Cc3ccccc3)NC(=O)[C@H](C)NC(=O)[C@H](CCC(N)=O)NC(=O)[C@H](Cc3cccc(C(=O)O)c3)NC(=O)[C@H](CC(=O)O)NC1=O)NC(=O)[C@H](CC(C)(C)C)NC(=O)[C@H](CC(=O)O)NC2=O (stereo partly drawn) [I-2487, Ac-PL3-Asp-Npg-B5-Asp-3COOHF-Gln-Ala-Phe-Leu-PyrS2-2F3MeF-7C1BztA-Ala-NH2] | 0.036 | 4.2 |
| CC(=O)N1CCC[C@]12CC=CCCCC1(CCCC=CCCCOC(=O)N3CC[C@@](C(=O)N[C@@H](Cc4ccccc4C(F)(F)F)C(=O)N[C@@H](Cc4csc5c(F)cccc45)C(=O)N[C@@H](C)C(N)=O)(C3)NC(=O)[C@H](CC(C)C)NC(=O)[C@H](Cc3ccccc3)NC(=O)[C@H](C)NC(=O)[C@H](CCC(N)=O)NC(=O)[C@H](Cc3cccc(C(=O)O)c3)NC(=O)[C@H](CC(=O)O)NC1=O)NC(=O)[C@H](CC(C)(C)C)NC(=O)[C@H](CC(=O)O)NC2=O (stereo partly drawn) [I-2489, Ac-PL3-Asp-Npg-B5-Asp-3COOHF-Gln-Ala-Phe-Leu-PyrS2-2F3MeF-7FBztA-Ala-NH2] | 0.029 | 7.4 |
